Type in all cases: cell-based
Assay [1] deals with T1, BSEP (Mus musculus, UniProt Q9QY30).
T1 sequence (Q9QY30 1-1321): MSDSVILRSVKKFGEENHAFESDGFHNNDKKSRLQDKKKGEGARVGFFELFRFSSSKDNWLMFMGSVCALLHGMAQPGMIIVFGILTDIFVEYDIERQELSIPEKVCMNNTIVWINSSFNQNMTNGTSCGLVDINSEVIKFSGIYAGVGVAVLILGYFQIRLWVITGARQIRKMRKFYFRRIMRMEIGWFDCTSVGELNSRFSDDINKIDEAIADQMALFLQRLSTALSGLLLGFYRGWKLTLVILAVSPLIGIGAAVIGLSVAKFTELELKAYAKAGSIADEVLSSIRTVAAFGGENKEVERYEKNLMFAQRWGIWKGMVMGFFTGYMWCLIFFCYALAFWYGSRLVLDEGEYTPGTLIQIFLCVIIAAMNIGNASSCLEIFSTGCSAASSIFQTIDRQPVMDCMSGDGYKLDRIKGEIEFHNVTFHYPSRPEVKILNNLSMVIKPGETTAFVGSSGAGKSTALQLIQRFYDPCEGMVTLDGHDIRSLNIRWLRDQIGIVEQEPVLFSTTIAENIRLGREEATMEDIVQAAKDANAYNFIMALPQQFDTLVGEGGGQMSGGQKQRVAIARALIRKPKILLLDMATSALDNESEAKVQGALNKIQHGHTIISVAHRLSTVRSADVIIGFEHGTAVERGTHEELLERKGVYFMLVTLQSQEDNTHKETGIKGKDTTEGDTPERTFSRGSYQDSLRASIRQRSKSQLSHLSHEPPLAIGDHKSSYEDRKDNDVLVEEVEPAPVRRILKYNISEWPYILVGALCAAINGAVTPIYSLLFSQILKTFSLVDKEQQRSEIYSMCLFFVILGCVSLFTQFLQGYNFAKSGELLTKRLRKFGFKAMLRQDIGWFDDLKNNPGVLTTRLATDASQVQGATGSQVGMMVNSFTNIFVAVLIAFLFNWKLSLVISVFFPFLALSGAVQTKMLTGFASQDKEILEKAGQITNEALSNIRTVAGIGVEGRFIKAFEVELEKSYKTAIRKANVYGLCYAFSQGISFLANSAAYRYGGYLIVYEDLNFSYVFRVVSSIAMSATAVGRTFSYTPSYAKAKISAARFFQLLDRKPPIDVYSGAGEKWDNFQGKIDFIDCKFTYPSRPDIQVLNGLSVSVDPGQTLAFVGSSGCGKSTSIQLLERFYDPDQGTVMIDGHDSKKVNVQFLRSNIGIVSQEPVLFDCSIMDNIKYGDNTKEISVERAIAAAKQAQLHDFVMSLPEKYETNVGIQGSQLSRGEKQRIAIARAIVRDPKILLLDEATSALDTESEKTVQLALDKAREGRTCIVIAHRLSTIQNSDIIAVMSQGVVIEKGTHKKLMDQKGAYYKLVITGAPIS
In words: IC50 for inhibition of BSEP activity in mouse hepatocytes. As for the experimental part:
(§1) Kinetic parameters were calculated using standard Michaelis-Menten kinetics. IC50 values were determined using Prism software (La Jolla, Calif.) or median-effect equation. [Chou et al., Theoretical basis, experimental design, and computerized simulation of synergism and antagonism in Drug Combination Studies. Pharmacological Reviews 58, 621, 2006]

Assay [2] addresses T2, BSEP (Rattus norvegicus, UniProt O70127).
T2 sequence (O70127 1-1321): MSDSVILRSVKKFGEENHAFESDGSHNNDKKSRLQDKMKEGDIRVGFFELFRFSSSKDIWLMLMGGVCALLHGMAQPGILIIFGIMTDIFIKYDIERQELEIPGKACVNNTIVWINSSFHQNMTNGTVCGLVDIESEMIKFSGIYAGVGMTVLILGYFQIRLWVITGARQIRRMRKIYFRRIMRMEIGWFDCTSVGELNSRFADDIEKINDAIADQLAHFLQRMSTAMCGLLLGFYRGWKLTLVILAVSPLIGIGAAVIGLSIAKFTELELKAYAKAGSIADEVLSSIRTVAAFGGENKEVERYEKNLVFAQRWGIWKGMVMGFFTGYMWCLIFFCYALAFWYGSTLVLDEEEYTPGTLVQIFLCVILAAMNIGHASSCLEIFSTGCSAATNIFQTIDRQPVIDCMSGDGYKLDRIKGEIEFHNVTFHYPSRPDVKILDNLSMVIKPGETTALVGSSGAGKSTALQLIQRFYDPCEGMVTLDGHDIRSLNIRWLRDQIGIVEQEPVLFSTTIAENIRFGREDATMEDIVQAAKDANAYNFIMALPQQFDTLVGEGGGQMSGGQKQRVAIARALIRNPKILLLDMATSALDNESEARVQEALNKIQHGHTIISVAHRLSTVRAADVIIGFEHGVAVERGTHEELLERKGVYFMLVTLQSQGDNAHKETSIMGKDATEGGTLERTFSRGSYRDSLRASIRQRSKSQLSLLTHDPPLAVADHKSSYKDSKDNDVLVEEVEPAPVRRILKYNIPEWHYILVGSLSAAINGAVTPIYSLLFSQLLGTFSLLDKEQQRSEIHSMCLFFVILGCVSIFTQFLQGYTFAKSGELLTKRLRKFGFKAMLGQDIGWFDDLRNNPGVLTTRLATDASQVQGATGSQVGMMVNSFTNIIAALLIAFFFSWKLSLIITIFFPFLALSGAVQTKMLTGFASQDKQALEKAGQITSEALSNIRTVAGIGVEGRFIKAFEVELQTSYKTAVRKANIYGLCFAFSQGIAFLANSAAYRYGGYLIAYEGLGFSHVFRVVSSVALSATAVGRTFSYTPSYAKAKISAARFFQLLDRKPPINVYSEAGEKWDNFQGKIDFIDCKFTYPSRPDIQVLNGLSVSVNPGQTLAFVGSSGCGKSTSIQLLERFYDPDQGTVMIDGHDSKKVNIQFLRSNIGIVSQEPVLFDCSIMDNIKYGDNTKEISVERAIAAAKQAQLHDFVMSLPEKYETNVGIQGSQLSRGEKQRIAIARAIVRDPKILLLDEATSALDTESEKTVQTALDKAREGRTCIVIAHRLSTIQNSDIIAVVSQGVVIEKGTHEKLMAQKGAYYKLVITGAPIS
The assay can be described thus: IC50 for inhibition of BSEP activity in rat hepatocytes. As for the experimental part: as §1

The target in assay [3] is BSEP (Homo sapiens, UniProt O95342). The assay can be described thus: IC50 for inhibition of BSEP activity in human hepatocytes. As for the experimental part:
as §1

Structures are written as SMILES. Bounds are passed on as bounds.

For orientation: IC50 means the concentration that gives 50% inhibition.

Chain of BSEP (Homo sapiens, UniProt O95342) (O95342 whole entry): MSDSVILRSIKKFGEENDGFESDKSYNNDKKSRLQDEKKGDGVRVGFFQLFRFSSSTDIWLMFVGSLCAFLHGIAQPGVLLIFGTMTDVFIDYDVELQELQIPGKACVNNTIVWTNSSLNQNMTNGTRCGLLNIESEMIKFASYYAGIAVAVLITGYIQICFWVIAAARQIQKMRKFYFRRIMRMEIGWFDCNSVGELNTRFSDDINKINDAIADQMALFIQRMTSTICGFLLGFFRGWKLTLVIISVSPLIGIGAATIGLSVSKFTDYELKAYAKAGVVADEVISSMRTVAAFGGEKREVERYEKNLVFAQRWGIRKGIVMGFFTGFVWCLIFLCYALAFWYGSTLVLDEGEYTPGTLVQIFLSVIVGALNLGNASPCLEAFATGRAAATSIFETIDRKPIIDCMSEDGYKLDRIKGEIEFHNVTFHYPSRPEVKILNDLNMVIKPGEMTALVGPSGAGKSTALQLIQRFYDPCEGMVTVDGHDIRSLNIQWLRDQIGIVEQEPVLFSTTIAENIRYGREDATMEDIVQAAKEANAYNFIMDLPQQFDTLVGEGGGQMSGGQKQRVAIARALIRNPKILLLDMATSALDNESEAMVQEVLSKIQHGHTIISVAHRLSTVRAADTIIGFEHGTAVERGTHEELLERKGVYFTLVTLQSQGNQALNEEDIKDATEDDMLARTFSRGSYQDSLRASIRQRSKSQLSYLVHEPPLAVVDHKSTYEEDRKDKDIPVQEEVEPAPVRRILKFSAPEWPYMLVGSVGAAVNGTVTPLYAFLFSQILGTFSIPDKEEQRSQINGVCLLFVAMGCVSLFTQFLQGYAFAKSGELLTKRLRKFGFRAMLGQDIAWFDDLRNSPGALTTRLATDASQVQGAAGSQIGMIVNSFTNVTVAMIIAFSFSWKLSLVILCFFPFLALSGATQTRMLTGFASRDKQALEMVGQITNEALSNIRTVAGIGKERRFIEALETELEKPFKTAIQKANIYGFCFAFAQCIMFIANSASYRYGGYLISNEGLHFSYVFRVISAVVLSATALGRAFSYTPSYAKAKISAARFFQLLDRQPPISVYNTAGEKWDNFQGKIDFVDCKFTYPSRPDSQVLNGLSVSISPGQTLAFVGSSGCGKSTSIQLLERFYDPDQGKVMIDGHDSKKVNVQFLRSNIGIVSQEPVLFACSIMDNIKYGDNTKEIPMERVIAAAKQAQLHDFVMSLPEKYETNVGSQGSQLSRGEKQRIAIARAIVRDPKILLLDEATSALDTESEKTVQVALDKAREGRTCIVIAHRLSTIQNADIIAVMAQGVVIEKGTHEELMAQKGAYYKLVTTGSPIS

In the case of `CC(=O)N1CCN(c2ccc(OCC3COC(Cn4ccnc4)(c4ccc(Cl)cc4Cl)O3)cc2)CC1` (stereo not shown) [Ketoconazole, ketoconazole], the IC50 on BSEP [1] and on BSEP [2] was above 10 µM throughout.
As for `CO[C@H]1/C=C/O[C@@]2(C)Oc3c(C)c(O)c4c(O)c(c(/C=N/N5CCN(C)CC5)c(O)c4c3C2=O)NC(=O)/C(C)=C\C=C\[C@H](C)[C@H](O)[C@@H](C)[C@@H](O)[C@@H](C)[C@H](OC(C)=O)[C@@H]1C` [Rifampicin], the IC50 was above 10 µM at BSEP [1] and 1 to 10 µM on BSEP [2].
As to `Cc1c(C)c2c(c(C)c1O)CCC(C)(COc1ccc(CC3SC(=O)NC3=O)cc1)O2` (stereo not shown) [Troglitazone, troglitazone], the IC50 is above 10 µM at BSEP [1], 1 to 10 µM on BSEP [2] and 1 to 10 µM at BSEP [3].
